# Reference: patent publication US20090239928A1, “N-Pyrrolidin-3YL-Amide Derivatives As Serotonin and Noradrenalin Re-Uptake Inhibitors” (priority 2004, published 2009)
# Counter-ions that a name gives are not always drawn. Like-named read-outs stand apart in the source and are kept apart here.
# Assays:
# [1] = target: T1, human serotonin transporter (hSERT) (Homo sapiens, UniProt P31645); experiment: SPA radioligand binding at human serotonin transporter (3H-citalopram)
# T1 construct: expressed in transfected cells; host or cells: HEK-293
# T1 sequence (P31645 whole entry): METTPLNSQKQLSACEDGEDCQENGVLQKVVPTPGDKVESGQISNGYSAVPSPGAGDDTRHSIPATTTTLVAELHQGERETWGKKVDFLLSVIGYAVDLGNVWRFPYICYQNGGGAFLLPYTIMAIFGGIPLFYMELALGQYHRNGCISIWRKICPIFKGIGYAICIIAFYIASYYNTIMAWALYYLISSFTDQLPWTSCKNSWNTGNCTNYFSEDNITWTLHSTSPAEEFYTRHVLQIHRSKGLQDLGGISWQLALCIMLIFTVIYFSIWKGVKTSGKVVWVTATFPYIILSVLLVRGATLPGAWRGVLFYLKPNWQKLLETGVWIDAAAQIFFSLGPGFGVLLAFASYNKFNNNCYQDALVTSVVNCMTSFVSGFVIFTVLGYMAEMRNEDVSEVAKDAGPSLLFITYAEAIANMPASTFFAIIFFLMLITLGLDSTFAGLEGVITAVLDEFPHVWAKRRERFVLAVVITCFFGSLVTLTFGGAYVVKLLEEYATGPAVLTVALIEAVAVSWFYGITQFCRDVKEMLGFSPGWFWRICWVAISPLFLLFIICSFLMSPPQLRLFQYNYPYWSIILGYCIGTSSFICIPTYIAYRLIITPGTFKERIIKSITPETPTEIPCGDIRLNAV
# Protocol: The compounds are tested for biological activity by their ability to inhibit binding of selective radioligands at the human serotonin and noradrenaline transporters (SERT and NET, respectively), using scintillation proximity assay (SPA) technology. The SPA binding is performed using cellular membrane preparations prepared from cell lines expressing human cDNA encoding either SERT or NET (hSERT, hNET), using the radioligands 3H-citalopram and 3H-nisoxetine.
# Human embryonic kidney cells (HEK-293) expressing each transporter are maintained as a continuous culture, using standard cell culture techniques, in 50 mL of growth medium (see Media and Buffers for composition) in 225 cm^2 flasks, at 37° C. in a humidified atmosphere with 5% CO2 present. Cells are passaged from a 90% confluent monolayer at a ratio of 1:3-1:4. For cell harvesting, the growth medium is removed from the monolayer and the cells are incubated with cell dissociation solution (Sigma) until showing signs of dissociation. The cells are subsequently knocked from the base of the flask and pelleted by centrifugation for storage (frozen at −80° C.) prior to further use.
# Cell pellets are thawed on ice and resuspended in 3 mL of membrane preparation buffer (see Media and Buffers for composition) per 1 mL of packed cell volume, using a vortex mixer to disperse the cell pellet. • After incubation on ice for 10 minutes, the suspension is homogenised for four individual 10 second intervals using a hand-held homogeniser. The homogenate is then centrifuged at 1075×g for 20 minutes at 4° C. • The supernatants are then collected and retained. Initial cell & nuclei pellets (P1) are subsequently rehomogenised and centrifuged using the conditions cited above, and the supernatants collected and pooled with those retained from the first spin.
# The pooled supernatants are centrifuged at 35000×g for 30 minutes at 4° C., and the supernatants discarded. The pellets (P2) are then resuspended in 1 mL of membrane preparation buffer per 1 mL of the original packed cell volume. Protein concentrations are then measured and the membrane suspension was finally frozen in aliquots of set volume and stored at −80° C. prior to use in assays.
# The specific SPA bead type differed for each transporter, wheat germ agglutinin-coated yttrium silicate (YSi WGA) SPA beads are used for hSERT and WGA-coated polyvinyltoluene (PvT WGA) SPA beads for hNET assays. For each batch of membrane used, optimal concentrations of bead and membrane are determined
# Tritiated radioligands specific to each transporter (3H-citalopram for hSERT and ^3H-nisoxetine for hNET) are used. The assay free radioligand concentration is expressed as a percentage of the total free radioligand concentration to give an estimate of the radioligand depletion. The radioligand depletion in assays for both transporters is less than 30% to ensure that there was sufficient radioligand available for binding. The ligand depletion value is also used for selecting the optimal assay conditions when using new batches of membranes.
# The affinity of the specific radioligand for the respective transporter is determined for each membrane batch at the selected protein and bead concentrations. This is achieved by the determination of the KD, the concentration of free radioligand at which 50% of the transporter binding sites were occupied. The mean KD for a radioligand at a batch of membranes is determined from data from a minimum of three separate assays. The mean KD is subsequently used for all assays using the membrane batch profiled to enable determination of Ki values of compounds studied using the method determined by Cheng and Prussoff (Cheng Y C and Prusoff W H. Relationship between the inhibition constant (Ki) and the concentration of inhibitor which causes 50% inhibition of an enzymatic reaction. Biochem Pharmacol 1973; 22:[…].)
# The required amount of membrane is thawed on ice and added to a predetermined volume of bead suspension in assay buffer. […]
# [2] = target: T2, human noradrenaline transporter (hNET) (Homo sapiens, UniProt P23975); experiment: SPA radioligand binding at human noradrenaline transporter (3H-nisoxetine)
# T2 construct: expressed in transfected cells; host or cells: HEK-293
# T2 sequence (P23975 whole entry): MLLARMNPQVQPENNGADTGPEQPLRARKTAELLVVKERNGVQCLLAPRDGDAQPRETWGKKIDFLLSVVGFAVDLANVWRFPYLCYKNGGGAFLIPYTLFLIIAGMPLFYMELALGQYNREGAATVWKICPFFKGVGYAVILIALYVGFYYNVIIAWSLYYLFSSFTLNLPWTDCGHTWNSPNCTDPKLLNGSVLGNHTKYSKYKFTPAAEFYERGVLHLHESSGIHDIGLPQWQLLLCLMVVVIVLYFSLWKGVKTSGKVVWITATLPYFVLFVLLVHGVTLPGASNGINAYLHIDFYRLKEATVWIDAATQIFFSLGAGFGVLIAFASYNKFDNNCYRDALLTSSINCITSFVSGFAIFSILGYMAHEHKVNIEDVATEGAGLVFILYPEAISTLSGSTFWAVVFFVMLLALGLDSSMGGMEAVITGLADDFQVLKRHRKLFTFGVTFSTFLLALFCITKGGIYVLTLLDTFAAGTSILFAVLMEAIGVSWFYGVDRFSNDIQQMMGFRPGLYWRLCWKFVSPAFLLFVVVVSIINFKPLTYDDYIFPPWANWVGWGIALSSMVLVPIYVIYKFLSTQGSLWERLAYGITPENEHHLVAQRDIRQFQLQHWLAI
# Protocol: The affinity of the specific radioligand for the respective transporter is determined for each membrane batch at the selected protein and bead concentrations. […] The mean KD for a radioligand at a batch of membranes is determined from data from a minimum of three separate assays.
# The required amount of membrane is thawed on ice and added to a predetermined volume of bead suspension in assay buffer. The beads are then pre-coupled by incubating the predetermined protein quantity per mg of bead on a shaker at a temperature of 4° C. for 2 hours. Subsequently, the bead/membrane complex is spun down at 865×g for 5 minutes. The resulting pellet is resuspended in assay buffer and this spin/wash step is then repeated. The final pellet is then resuspended in assay buffer at the specific concentration required for the final assay.
# An aliquot of [^3H]-radioligand stock is diluted in assay buffer to give a pre-determined final assay concentration less than the equilibrium dissociation constant (KD) value.
# All test compounds are prepared at a concentration of 4 mM in 100% dimethyl sulphoxide (DMSO) from dry samples.
# The same volume of assay buffer is added to specific wells of the plate to enable subsequent measurement of total radioligand binding. Furthermore, 20 μL a high concentration of compound specific to each transporter assay is subsequently added to predetermined wells to determine non-specific binding (NSB).
# [3] = hSERT membranes from HEK-293 cells, 3H-citalopram, SPA, read-out: SRI Ki
# [4] = hNET membranes from HEK-293 cells, 3H-nisoxetine, SPA, read-out: NRI Ki
Structure (SMILES),"Ki [1, 3]","Ki [2, 4]",Ki [2],Ki [1]
"O=C(c1ccccc1Oc1ccccc1)N(C1CCCC1)[C@H]1CCNC1 [Example 4, N-Cyclopentyl-2-phenoxy-N-[(3S)-pyrrolidin-3-yl]benzamide hydrochloride]",0.07 µM,0.012 µM,,
"CCCN(C(=O)c1cc(F)ccc1Oc1ccccc1)[C@H]1CCNC1 [Example 7, 5-fluoro-2-phenoxy-N-propyl-N-[(3S)-pyrrolidin-3-yl]benzamide hydrochloride]",2.4 µM,0.009 µM,,
"CSc1ccccc1C(=O)N(CC1(C)CCC1)[C@H]1CCNC1 [Example 9, N-[(1-methylcyclobutyl)methyl]-2-(methylthio)-N-[(3S)-pyrrolidin-3-yl]benzamide hydrochloride]",0.02 µM,,0.006 µM,
"O=C(c1ccccc1Oc1ccccc1)N(c1ccccc1)[C@H]1CCNC1 [Example 14, 2-phenoxy-N-phenyl-N-[(3S)-pyrrolidin-3-yl]benzamide hydrochloride]",,0.003 µM,,0.067 µM
"O=C(c1ccccc1C1CCCC1)N(CC1CC1)[C@H]1CCNC1 [Example 19, 2-cyclopentyl-N-(cyclopropylmethyl)-N-[(3S)-pyrrolidin-3-yl]benzamide hydrochloride]",0.5 µM,0.016 µM,,
"CSc1ccccc1C(=O)N(C1CCCCC1)[C@H]1CCNC1 [Example 20, N-cyclohexyl-2-(methylthio)-N-[(3S)-pyrrolidin-3-yl]benzamide hydrochloride]",0.017 µM,0.005 µM,,
